In patent US7745443B2 (Sanofi-Aventis Deutschland GmbH, priority 2002, dated 2010):

Target: binding of human von Willebrand factor to europium (Eu)-chelate-labeled chimeric GPIb-Fc protein (Homo sapiens, UniProt P04275+P07359)
Experiment: Von Willebrand Factor-GPIb Binding Assay (Eu based, botrocetin-induced)
Conditions: botrocetin-induced binding of Eu-chelate-labeled chimeric GPIb-Fc to immobilized human vWF; IC50 values as specified in the examples
Procedure: Activity of compounds of the formula I was shown by an Eu based binding assay in which the binding of human von Willebrand factor to an europium (Eu)-chelate-labeled chimeric GPIb-Fc protein was induced by botrocetin. The preparation of the Eu-chelate-labeled chimeric GPIb-Fc protein is described in detail in a patent application (Fukuchi et al., EP1074564).
A TBS (Tris buffered saline, 20 mM Tris-HCl (pH 7.4) and 0.15 M NaCl) (50 microl) containing human von Willebrand factor (2.5 microg/ml) was added to each well of 1 96-well plate, and the von Willebrand factor was immobilized as a solid phase overnight at 4 dec. Each well was washed once with TBS (150 microl) and blocked with TBS containing 5% BSA (bovine serum albumin) for about 3 hours. Each well of the plate was washed twice with TBS (150 microl), and then added with 25 microl of an assay buffer (Assay Buffer, 1244-106, produced by Wallac) with the compounds, further added with the assay buffer (25 microl) containing the europium (Eu)-chelate-labeled chimeric GPIb-Fc protein (100 ng/ml), labeled with Eu-N1-ITC (Eu-chelate of N^1-(p-isothiocyanatebenzyl)-diethlenetriamine-N^1,N^2,N^3,N^3-tetraacetic acid, 1244-302, produced by Wallac) and botrocetin (500 ng/ml), and left stand at room temperature for 2 hours. The preparation of the Eu-chelate-labeled chimeric GPIb-Fc protein is described in detail in a patent application (Fukuchi et al., EP1074564). Each well of the plate was washed 5 times with TBS (150 microl) containing 0.05% Tween-20, then added with 100 microl of a fluorescence enhancement buffer (Enhancement Solution, 1244-104, produced by Wallac), and shaken for 1 minute. Then, the amount of europium (Eu) was measured by using a 1420 ARVO multi-label counter (produced by Wallac, measurements time: 1 second).

Chain of binding of human von Willebrand factor to europium (Eu)-chelate-labeled chimeric GPIb-Fc protein (P04275 764-2813 limits assumed, change not shown): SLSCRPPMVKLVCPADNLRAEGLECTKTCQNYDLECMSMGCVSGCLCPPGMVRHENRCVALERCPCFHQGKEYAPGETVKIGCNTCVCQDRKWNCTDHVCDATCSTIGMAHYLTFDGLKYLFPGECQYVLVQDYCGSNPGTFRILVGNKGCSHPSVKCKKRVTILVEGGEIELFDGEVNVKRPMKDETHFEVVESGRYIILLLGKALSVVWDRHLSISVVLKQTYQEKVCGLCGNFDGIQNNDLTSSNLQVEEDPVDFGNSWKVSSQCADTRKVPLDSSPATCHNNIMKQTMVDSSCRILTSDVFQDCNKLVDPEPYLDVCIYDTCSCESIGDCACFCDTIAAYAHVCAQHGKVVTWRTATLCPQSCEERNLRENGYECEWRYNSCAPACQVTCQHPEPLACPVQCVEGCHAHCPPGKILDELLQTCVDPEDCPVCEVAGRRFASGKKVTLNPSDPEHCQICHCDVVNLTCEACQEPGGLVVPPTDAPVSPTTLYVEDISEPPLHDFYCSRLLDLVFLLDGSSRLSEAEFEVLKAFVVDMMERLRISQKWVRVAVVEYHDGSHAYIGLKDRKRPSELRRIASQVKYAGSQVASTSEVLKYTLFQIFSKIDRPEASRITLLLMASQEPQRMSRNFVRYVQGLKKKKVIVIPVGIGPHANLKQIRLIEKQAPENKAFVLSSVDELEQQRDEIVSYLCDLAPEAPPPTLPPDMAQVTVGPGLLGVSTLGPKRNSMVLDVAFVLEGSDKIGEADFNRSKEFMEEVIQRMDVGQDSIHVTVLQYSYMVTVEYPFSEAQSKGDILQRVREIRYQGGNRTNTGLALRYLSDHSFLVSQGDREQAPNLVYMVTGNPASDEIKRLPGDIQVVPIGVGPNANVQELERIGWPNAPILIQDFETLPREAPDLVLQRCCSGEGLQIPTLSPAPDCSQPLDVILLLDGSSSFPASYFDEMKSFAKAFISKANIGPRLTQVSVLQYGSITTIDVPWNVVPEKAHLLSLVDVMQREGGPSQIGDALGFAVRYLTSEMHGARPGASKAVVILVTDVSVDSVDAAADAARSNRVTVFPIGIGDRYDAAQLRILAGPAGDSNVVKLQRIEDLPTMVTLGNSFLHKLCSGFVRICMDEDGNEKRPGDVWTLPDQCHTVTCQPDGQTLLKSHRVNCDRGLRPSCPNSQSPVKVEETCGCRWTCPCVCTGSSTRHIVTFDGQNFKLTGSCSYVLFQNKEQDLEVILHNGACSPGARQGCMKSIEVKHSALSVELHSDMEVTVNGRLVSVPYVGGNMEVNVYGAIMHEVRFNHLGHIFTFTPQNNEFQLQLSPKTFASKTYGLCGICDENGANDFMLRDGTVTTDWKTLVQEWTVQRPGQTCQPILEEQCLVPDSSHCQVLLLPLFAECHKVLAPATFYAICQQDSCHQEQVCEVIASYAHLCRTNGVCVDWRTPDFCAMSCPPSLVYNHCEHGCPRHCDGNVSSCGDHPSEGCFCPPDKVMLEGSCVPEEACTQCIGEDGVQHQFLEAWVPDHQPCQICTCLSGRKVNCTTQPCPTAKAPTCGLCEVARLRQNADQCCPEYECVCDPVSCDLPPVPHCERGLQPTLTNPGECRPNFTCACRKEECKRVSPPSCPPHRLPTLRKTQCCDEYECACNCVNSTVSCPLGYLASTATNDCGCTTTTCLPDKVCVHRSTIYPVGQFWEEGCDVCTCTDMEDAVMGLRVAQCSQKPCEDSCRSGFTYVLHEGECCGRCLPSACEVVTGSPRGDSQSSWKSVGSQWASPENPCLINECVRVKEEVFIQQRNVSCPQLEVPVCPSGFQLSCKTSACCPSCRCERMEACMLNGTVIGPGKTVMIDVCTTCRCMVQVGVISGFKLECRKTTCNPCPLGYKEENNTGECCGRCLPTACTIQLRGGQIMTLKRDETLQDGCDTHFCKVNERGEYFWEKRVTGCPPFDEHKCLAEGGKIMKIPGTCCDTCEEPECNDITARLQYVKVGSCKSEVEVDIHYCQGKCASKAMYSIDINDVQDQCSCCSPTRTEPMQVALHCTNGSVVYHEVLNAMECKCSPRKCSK
Chain of binding of human von Willebrand factor to europium (Eu)-chelate-labeled chimeric GPIb-Fc protein (P07359 17-335 limits assumed, change not shown): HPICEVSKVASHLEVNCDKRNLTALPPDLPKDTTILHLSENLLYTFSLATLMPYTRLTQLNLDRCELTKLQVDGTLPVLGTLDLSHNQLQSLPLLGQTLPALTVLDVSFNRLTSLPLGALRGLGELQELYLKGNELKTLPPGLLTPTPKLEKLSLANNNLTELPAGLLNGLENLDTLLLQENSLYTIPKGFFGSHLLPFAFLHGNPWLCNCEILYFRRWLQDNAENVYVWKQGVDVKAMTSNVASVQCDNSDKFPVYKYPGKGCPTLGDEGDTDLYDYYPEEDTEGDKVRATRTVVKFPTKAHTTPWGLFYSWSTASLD

Row | SMILES | IC50 [µM]
1 | Cc1cc(N)c2cc(C(=O)Nc3ccc(NC(=O)c4ccc5nc(C)cc(N)c5c4)cc3)ccc2n1 [Example 36] | 1.57
2 | Cc1cc(N)c2cc(C(=O)NC3CCC(NC(=O)c4ccc5nc(N)sc5c4)CC3)ccc2n1 (centres unmarked) [Example 38, 4-Amino-N-(4-{[(2-amino-1,3-benzothiazol-6-yl)carbonyl]amino}cyclohexyl)-2-methyl-6-quinolinecarboxamide] | 33.3
3 | Cc1cc(N)c2cc(C(=O)NC3CCC(NC(=O)c4ccc5nc(N)ccc5c4)CC3)ccc2n1 (centres unmarked) [Example 39, 4-Amino-N-(4-{[(2-amino-6-quinolinyl)carbonyl]amino}cyclohexyl)-2-methyl-6-quinolinecarboxamide] | 28.5

Continued by falling IC50, values first:

Row | IC50 [µM] | SMILES
4 | 9.18 | COc1cc(NC(=O)c2ccc3[nH]c(C)nc3c2)ccc1NC(=O)c1ccc2nc(C)cc(N)c2c1 [Example 35, 4-Amino-N-(2-methoxy-4-{[(2-methyl-1H-benzimidazol-5-yl)carbonyl]amino}phenyl)-2-methyl-6-quinolinecarboxamide]
5 | 2.56 | Cc1cc(N)c2cc(C(=O)Nc3ccc(CNc4ccc5cn[nH]c5c4)cc3)ccc2n1 [Example 37, 4-Amino-N-{4-[(1H-indazol-6-ylamino)methyl]phenyl}-2-methyl-6-quinolinecarboxamide]
